Data on 3 molecules can be found in patent US8747811B2, “Perylenequinone derivatives and uses thereof” (Quest Pharmatech, Inc., priority 2005, dated 2014).

Structures are written as SMILES.

The nature of series [1]: UV-visible absorption spectra in DMSO. The format is physicochemical. An excerpt: The absorption spectra of compounds (4) and (5) recorded in DMSO are shown in FIG. 1 along with the parent compound (2). Based on the study of absorption spectra of hypocrellin B (2) (Diwu et al. Sinica Sol. B 18, 1993, 131), the shorter wavelength absorption bands are assigned to the π-π* transition, and the absorption bands at the longer wavelength is the relation to […] charge transfer (ICT) which may take on some active role in the photodynamic activity of the molecule. From FIG. 1, the absorption at the longer wavelengths of compounds (4) and (5) has enhanced, as compared to the parent hypocrellin B (2). The maximum absorption of compounds (4) and (5) is around 600-700 nm in DMSO which helps in tissue penetration, while the parent compound hypocrellin (2) has maximum absorption at 580 nm in DMSO. When an electron donating group like 3-dimethylaminopropylamine is introduced in the quinonoid molecule, its interaction with the adjacent carbonyl group enhances the red shift in the absorption spectra, thereby leading to an extended red shift spectral region (photodynamic window) which is important for PDT.

Series [2] in a line: Fluorescence spectra in chloroform. It counts as physicochemical. From the text:
The introduction of the extra cyclic ring in compound (5) have shown a new fluorescent band at longer wavelength (around 725 nm), because of the […] H-atom transfer process. The new florescent band is considered to be related to the ICT between the amino group and the […] carbonyl group.

The test system of series [3] is EMT-6 cells. The series is described as follows: Dark toxicity, clonogenic assay in EMT-6 cells. It counts as cell-based, mouse. Particulars: no light. As for the experimental part: EMT-6 cells in log phase growth were plated onto 35 mm dishes 24 hours prior to experimentation. Growth media was removed and replaced with media containing compounds (4) and (5) at the doses (0, 2.5 μM, 5 μM and 20 μM). The plates were then kept at 37° C. for 3 hours in the dark and then the cells were washed 2 times in PBS then trypsinized and re-plated at 200 cells/60 mm dish in normal RPMI growth media. The cells were allowed to grow for 7 days and then stained with Methylene Blue and the surviving colonies counted.
EMT-6 cells in log phase growth were plated onto 35 mm tissue culture dishes 24 hours prior to experimentation. Growth media was removed and replaced with media containing compounds (4) or (5) at the above doses—0, 2.5 μM, 5 μM and 20 μM (Initially, the drugs were dissolved in pure DMSO @ a concentration of 2 mM). They were diluted down to the appropriate concentrations in RPMI growth media. The plates were then kept at 37° C. for 3 hours in the dark and then the cells were washed 2 times in PBS and finally had 2 ml of RPMI added to each dish. Then, the dark toxicity samples were kept covered at room temperature for the equivalent time taken for light treatment of the other samples. […] The cells were allowed to grow for 7 days and then stained with Methylene Blue and the surviving colonies counted.

The test system of series [4] is EMT-6 cells. The series can be described thus: Light treatment (PDT), clonogenic assay in EMT-6 cells. It counts as cell-based, mouse. Particulars: for cell killing ability: 0-20 μM drug, graded light doses, 635 nm; for cell death after light treatment: EMT-6 cells, clonogenic assay, with light; for cell survival: Five μM drug concentration with 2 J/cm^2 light treatment, 635 nm laser. As for the experimental part: EMT-6 cells in log phase growth were plated onto 35 mm tissue culture dishes 24 hours prior to experimentation. Growth media was removed and replaced with media containing compounds (4) or (5) at the above doses—0, 2.5 μM, 5 μM and 20 μM (Initially, the drugs were dissolved in pure DMSO @ a concentration of 2 mM). They were diluted down to the appropriate concentrations in RPMI growth media. The plates were then kept at 37° C. for 3 hours in the dark and then the cells were washed 2 times in PBS and finally had 2 ml of RPMI added to each dish. Then, the dark toxicity samples were kept covered at room temperature for the equivalent time taken for light treatment of the other samples. Light treated samples were subjected to grades doses of light (0, 0.5, 1, 2.5 and 5 J/cm^2) from 635 nm laser with a fluency rate of 150 milli watts. The media was removed and the cells trypsinized and re-plated at 200 cells/60 mm dish in normal RPMI growth media. The cells were allowed to grow for 7 days and then stained with Methylene Blue and the surviving colonies counted.

Series [5] relates to BT549 cells. The series can be described thus: Photodynamic activity, tritiated thymidine uptake in BT549 cells. The settings on record: for activity in the absence of light treatment: no light; for cell death after light treatment: tritiated thymidine uptake, with light. It counts as cell-based. From the text:
The photodynamic activity of compound 4 has been studied in two cell lines cells by measuring cell death post treatment by tritiated thymidine uptake (in […] cells) and clonogenic assays (in EMT-6 cells).
The photodynamic activity of ACP-compound 5 was studied in two cell lines cells by measuring cell death post treatment by tritiated thymidine uptake (in BT549 cells) and clonogenic assays (in EMT-6 cells).

Series [6] relates to EMT-6 mouse tumor model. The series is described as follows: PDT in EMT-6 mouse tumor model. The format is in vivo. The settings on record: liposomal formulation (DPPC and cholesterol) combined with light treatment. An excerpt: Liposomal formulations of compound 5 for systemic delivery of the photosensitizer. The photosensitizer is formulated with a mixture of dipalmitoyl phosphatidylcholine (DPPC) and cholesterol and extruded through membrane of different pore size until the required size of liposomes was achieved.

Series [7] has as its system normal mouse skin. The series can be described thus: PDT effect on normal mouse skin. The format is in vivo. An excerpt:
Likewise, the photosensitizer alone without light treatment was also ineffective.

Series [8] concerns human (ex vivo) skin samples. The series can be described thus: PDT treated human (ex vivo) skin samples, histology.
Series [9] is described as follows: Phase 1 clinical study, topical application to the back of patients with acne. It counts as in vivo, human. Particulars: 10 patients with acne on the back. An excerpt: The primary objective of the study was to measure and quantify the fluorescence levels of ACP-compound 4 in sebaceous glands, epidermis and hair follicles at different time points after topical application. The study also monitored the safety of the drug product after topical administration. The study consisted of a group of 10 patients with acne on the back.

On to `COc1c(O)c2c(=O)cc(OC)c3c4c(OC)cc(=O)c5c6c(c7c(c(c1C(C(C)=O)C(C)=C7)c23)c54)NC1CCCCC1N6` (stereo not shown) [Compound 5, (2,3b)-Octahydroquinoxalin-yl-hypocrellin B derivative], for which the “absorption at the longer wavelengths as compared to the parent hypocrellin B (2)” value in series [1] is “enhanced”. Also, the “new fluorescent band at longer wavelength” value in series [2] is listed as “around 725 nm”. Moreover, the “activity in the absence of light treatment” value (shortened to “activity in the absence”) in series [3] was “No significant activity”. Besides, in [4], the cell killing ability result was “dose dependent cell killing ability with increasing light and drug dose”; the “cell death after light treatment” value is “significant cell death”; the cell survival was determined as 1 cell per 1000 plated. Further, in [5], the “activity in the absence” value is “No significant activity” and the “cell death after light treatment” value is given as “significant cell death”. For the same molecule, the tumor response entry in [6] was “Complete cure of the implanted tumor”.
The molecule `COc1c2c3c4c(c(OC)c(=O)c5c(O)cc(OC)c(c6c(OC)cc(O)c(c1=O)c63)c54)C(C(C)=O)=C(C)C2` [hypocrellin (2), hypocrellin B, reference compound] returned a maximum absorption in series [1] of 580 nm.
For the molecule `COc1c(O)c2c(=O)cc(OC)c3c4c(OC)cc(=O)c5c(O)c(NCCCN(C)C)c6c(c(c1C(C(C)=O)C(C)=C6)c23)c54` (stereo not shown) [Compound 4, 2-(N,N-dimethylaminopropyl)-amino-15-acetyl-3,10-dihydroxy-6,7,11-trimethoxy-14-methyl-15-H-cyclohepta(ghi)perylene-4,9-dione], in series [1], the “absorption at the longer wavelengths as compared to the parent hypocrellin B (2)” value is recorded as “enhanced”. Moreover, the “activity in the absence” value in series [3] and in [5] was “No significant activity” each time. Also, the cell killing ability entry in [4] was “dose dependent cell killing ability with increasing light and drug dose”. Besides, the “cell death after light treatment” value in [4] and in series [5] was “significant cell death” throughout. For the same molecule, the cell survival in series [4] was determined as 1 cell per 1000 plated. Besides, the tissue damage result in series [7] (70 J/cm^2, penetration for 3 to 5 hours) is “significant epidermal apoptosis”; in series [7] (70 J/cm^2, penetration time of 1 or 2 hours, 7 days post treatment) it was “mild injury to the epidermal cells”; in series [7] (100 J/cm^2, 1 hour of penetration) it was “only the epithelium and part of the fatty layer showed damage”; in series [7] (100 J/cm^2, 2 hours of penetration), “Apoptosis of epidermal cells, basal layer and hair follicle”; in series [7] (100 J/cm^2, 3 hours of penetration), “the whole tissue layer, including muscle layer showed significant damage”. The “tissue damage, photosensitizer alone” value in series [7] (without light treatment) is given as “ineffective”. Also, the “histological changes after PDT” value in series [8] is given as “no histological changes up to two days post treatment but progressive necrotic/apoptotic changes thereafter”. Also, the adverse events entry in series [9] is reported as “No adverse events have been observed”.
